Reference: patent US20040034036A1, “N-(3,5-dichloro-2-methoxyphenyl)-4-methoxy-3-piperazin-1-yl-benzenesulfonamide” (priority 2000, published 2004)

Legend:
CNS penetration = type: in vivo; conditions: relative to N-(2,3,5-Trichlorophenyl)-4methoxy-3-piperazin-1-ylbenzenesulfonamide (Example 136 of WO 99/02502)
oral bioavailability = conditions: in vivo
[1] = MEST (Maximal electroshock seizure threshold) test; type: in vivo; conditions: procedures described by Upton et al.

SMILES	CNS penetration (CNS penetration)	oral bioavailability (oral bioavailability)	effect in MEST test [1]
COc1ccc(S(=O)(=O)Nc2cc(Cl)cc(Cl)c2OC)cc1N1CCNCC1 [compound of formula (I), N-(3,5-Dichloro-2-methoxy-phenyl)-4-methoxy-3-piperazin-1-yl-benzenesulfonamide]	enhanced	high	strongly anti-convulsant effect
COc1ccc(S(=O)(=O)Nc2cc(Br)cc(F)c2Br)cc1N1CCNCC1 [Example 140 of WO 99/02502, N-(2,5-Dibromo-3-fluorophenyl)-4-methoxy-3-piperazin-1-ylbenzenesulfonamide, reference compound]			pro-convulsant effect
